{"source": "patent US4118507A", "about": "“Benzodioxincarboxamide lipogenesis inhibitors” (Shell Oil Company, priority 1977, dated 1978)", "key": {"[1]": {"tested_on": "lipogenesis in swine adipose tissue", "assay": "percent inhibition of lipogenesis from radioactive glucose in pig (swine) adipose tissue slices", "assay_type": "cell-based", "details": "100 micrograms per milliliter, 37° C., 2 hours", "description": "(§1) The manner in which they cause this effect is not known with certainty; it is believed that they interfere with the synthesis of fatty acids in the tissues. Their effectiveness for this purpose has been ascertained by immersing samples of mammalian liver or adipose tissue in a liquid medium containing radioactive glucose and the test chemical for a period of time, then isolating the lipid from the treated tissue and determining the up-take of the radioactive carbon by means of scintillation counting techniques. These tests were conducted with both liver and adipose tissues, because in some animals the primary site of lipogenesis appears to be liver tissue, while in others it appears to be adipose tissue. The test animals were pigs, sheep, rabbits, cats and dogs.\nDescribed in more detail, the tests were conducted according to the following general procedure:\nTissue slices (200 milligrams for liver; 150 milligrams for adipose tissue) were incubated, at 37° C. for 2 hours with shaking in 3 milliliters of Krebs-Ringer bicarbonate solution containing one-half the normal calcium ion concentration, 60 micromoles of glucose, 0.5 micro-Curie of glucose-U-^14 C, 300 microunits of insulin, and 5% dimethyl sulfoxide (DMSO). The test compounds were added as a solution or suspension in DMSO and were present at a concentration of 100 micrograms per milliliter of the incubation mixture.\nThe incubation was terminated by addition of 0.25 milliliter of 1 N sulfuric acid. The resulting mixture was extracted with a total of 25 milliliters of chloroform:methanol (2:1, v/v). The extracts were washed according to Folch et al. (J. Biol. Chem., 226, 497-509, (1957)), air dried, and counted in a liquid scintillation counter with 15 milliliters of counting fluid (two parts toluene containing 0.4% w/v New England Nuclear Omnifluor: 1 part Triton X-100). The tests were conducted in triplicate and were accompanied by control tests in which all ingredients,proportions and conditions were the same except that no test compound was included. From the data obtained, the percent inhibition of lipid synthesis by the test compound was calculated in each case.\nCompound 1 was tested with respect to all of the indicated animal species. The other three compounds were tested only with respect to the pig.\nFrom these and other tests, it has been established that in pigs there is little lipogenic activity in the liver tissue. From these and other tests, it also has been established that swine adipose tissue utilizes glucose for lipogenesis, and to be the major site of fatty acid synthesis. The data obtained from the tests using adipose tissue and glucose are set out in Table 1, as the percent inhibition of lipogenesis compared to the results obtained in the control tests wherein only the test compound was omitted."}, "[2]": {"tested_on": "glucose incorporation in the liver", "assay": "inhibition of glucose incorporation into lipids in sheep liver tissue slices", "assay_type": "cell-based", "details": "100 micrograms per milliliter, 37° C., 2 hours", "description": "as §1\n(§2) Described in more detail, the tests were conducted according to the following general procedure: […]\n(§3) The incubation was terminated by addition of 0.25 milliliter of 1 N sulfuric acid. […] The extracts were washed according to Folch et al. (J. Biol. Chem., 226, 497-509, (1957)), air dried, and counted in a liquid scintillation counter with 15 milliliters of counting fluid (two parts toluene containing 0.4% w/v New England Nuclear Omnifluor: 1 part Triton X-100). […] From the data obtained, the percent inhibition of lipid synthesis by the test compound was calculated in each case. […]"}, "[3]": {"tested_on": "glucose incorporation in adipose tissue", "assay": "inhibition of glucose incorporation into lipids in sheep adipose tissue slices", "assay_type": "cell-based", "details": "100 micrograms per milliliter, 37° C., 2 hours", "description": "as §1, §2, §3"}, "[4]": {"tested_on": "glucose incorporation into liver", "assay": "inhibition of glucose incorporation into rabbit liver tissue slices", "assay_type": "cell-based, rabbits", "details": "100 micrograms per milliliter, 37° C., 2 hours", "description": "as §1, §2, §3"}, "[5]": {"tested_on": "glucose incorporation into adipose tissue", "assay": "inhibition of glucose incorporation into rabbit adipose tissue slices", "assay_type": "cell-based, rabbits", "details": "100 micrograms per milliliter, 37° C., 2 hours", "description": "as §1, §2, §3"}, "[6]": {"tested_on": "lipogenesis from glucose in the liver", "assay": "inhibition of lipogenesis from glucose in cat liver tissue slices", "assay_type": "cell-based, cats", "details": "100 micrograms per milliliter, 37° C., 2 hours", "description": "as §1, §2, §3"}, "[7]": {"tested_on": "glucose utilization in adipose tissue", "assay": "inhibition of glucose utilization in cat adipose tissue slices", "assay_type": "cell-based, cats", "details": "100 micrograms per milliliter, 37° C., 2 hours", "description": "as §1, §2, §3"}, "[8]": {"tested_on": "lipogenesis from glucose in adipose tissue", "assay": "inhibition of lipogenesis from glucose in dog adipose tissue slices", "assay_type": "cell-based, dogs", "details": "100 micrograms per milliliter, 37° C., 2 hours", "description": "as §1, §2, §3"}, "[9]": {"tested_on": "swine adipose tissue lipid synthesis", "assay": "in vivo inhibition of swine adipose tissue lipid synthesis (oral dosing in feed, lipogenesis in biopsy slices)", "details": "pigs, approximately 25 milligrams per kilogram per day in feed for seven days", "protocol": "Compound 1 also was tested to determine the in vivo inhibition of swine adipose tissue lipid synthesis, as follows: pigs weighing about 20 kilograms were administered a fixed drug dose of approximately 25 milligrams of drug per kilogram of animal body weight per day for seven consecutive days. The drug was formulated to contain 10% w active ingredient and was prepared as coarse granules using 4% w plasdene as the granulating agent and lactose as the carrier. […] The daily drug or placebo dose was added to 1.2 kilograms of swine ration; about one-third of the total was fed at 0800, 1200, and 1600 hours. Biopsy samples were obtained from the dorsal subcutaneous adipose tissue (ca. 1 gram) in the neck region before drug administration, after 7 days of drug administration, and 6 days after withdrawal of drug. Adipose tissue slices were prepared from the biopsy sample, and in vitro lipogenesis was determined with radioactive glucose as substrate. The incubation was similar to that previously described except there was no DMSO or test compound in the flasks."}}}
{"compound": "C=CCNC(=O)C1(C)COc2ccccc2O1", "note": "(centres unmarked) [Compound 2, 2,3-dihydro-N-(2-propenyl)-2-methyl-1,4-benzodioxin-2-carboxamide]", "values": [{"measurement": "Percent Inhibition of lipogenesis compared to control", "setting": "[1]", "result": 41, "unit": "%"}]}
{"compound": "C=CCNC(=O)C1COc2cc(C)ccc2O1", "note": "(centres unmarked) [Compound 6, 2,3-dihydro-6-methyl-N-(2-propenyl)-1,4-benzodioxin-2-carboxamide]", "values": [{"measurement": "Percent Inhibition of lipogenesis compared to control", "setting": "[1]", "result": 80, "unit": "%"}]}
{"compound": "C=CCNC(=O)C1COc2cc(C(C)(C)C)ccc2O1", "note": "(centres unmarked) [Compound 5, 6-(1,1-dimethylethyl)-2,3-dihydro-N-(2-propenyl)-1,4-benzodioxin-2-carboxamide]", "values": [{"measurement": "Percent Inhibition of lipogenesis compared to control", "setting": "[1]", "result": 36, "unit": "%"}]}
{"compound": "C=CCNC(=O)[C@@H]1Oc2ccccc2O[C@@H]1C", "note": "(relative stereo) [Compound 4, 2,3-dihydro-3-methyl-N-(2-propenyl)-1,4-benzodioxin-2-carboxamide cis isomer]", "values": [{"measurement": "Percent Inhibition of lipogenesis compared to control", "setting": "[1]", "result": 68, "unit": "%"}]}
{"compound": "C=CCNC(=O)C1COc2ccc(C)cc2O1", "note": "(centres unmarked) [Compound 7]", "values": [{"measurement": "Percent Inhibition of lipogenesis compared to control", "setting": "[1]", "result": 55, "unit": "%"}]}
{"compound": "C=CCNC(=O)C1COc2ccc(F)cc2O1", "note": "(centres unmarked) [Compound 8, 7-fluoro-2,3-dihydro-N-(2-propenyl)-1,4-benzodioxin-2-carboxamides]", "values": [{"measurement": "Percent Inhibition of lipogenesis compared to control", "setting": "[1]", "result": 72, "unit": "%"}]}
{"compound": "C=CCNC(=O)C1COc2cc(Cl)ccc2O1", "note": "(centres unmarked) [Compound 3A, 6-chloro-2,3-dihydro-N-(2-propenyl)-1,4-benzodioxin-2-carboxamide]", "values": [{"measurement": "Percent Inhibition of lipogenesis compared to control", "setting": "[1]", "result": 38, "unit": "%"}]}
{"compound": "C=CCNC(=O)C1COc2ccccc2O1", "note": "(centres unmarked) [Compound 1, 2,3-dihydro-N-(2-propenyl)-1,4-benzodioxin-2-carboxamide]", "values": [{"measurement": "Percent Inhibition of lipogenesis compared to control", "setting": "[1]", "result": 75, "unit": "%"}, {"measurement": "inhibition of glucose incorporation in the liver", "setting": "[2]", "result": 27, "unit": "%"}, {"measurement": "inhibition of glucose incorporation in adipose tissue", "setting": "[3]", "result": 50, "unit": "%"}, {"measurement": "inhibition of glucose incorporation into liver", "setting": "[4]", "result": 32, "unit": "%"}, {"measurement": "inhibition of glucose incorporation into adipose tissue", "setting": "[5]", "result": 30, "unit": "%"}, {"measurement": "inhibition of lipogenesis from glucose in the liver", "setting": "[6]", "result": 35, "unit": "%"}, {"measurement": "inhibition of glucose utilization in adipose tissue", "setting": "[7]", "result": "did not inhibit glucose utilization in adipose tissue"}, {"measurement": "inhibition of lipogenesis from glucose in adipose tissue", "setting": "[8]", "result": 54, "unit": "%"}, {"measurement": "effect on lipogenic rate at day 13, compared to control animals", "setting": "[9]; biopsy 6 days after withdrawal", "result": "had significantly reduced the lipogenic rate at day 13"}, {"measurement": "effect on lipogenesis at day 7, compared to control animals", "setting": "[9]; biopsy after 7 days of administration", "result": "had not significantly affected lipogenesis at day 7"}]}
